The target of assay [1] is GDP-bound NRAS wild-type protein (Homo sapiens, UniProt P01111). In words: Binding to NRAS by surface plasmon resonance (SPR), Single Cycle Kinetics. Conditions: SPR, GDP-bound NRAS wild-type vs GDP-bound KRAS wild-type.
Assay [2] deals with GDP-bound HRAS wild-type protein (Homo sapiens, UniProt P01112). In words: Binding to HRAS by surface plasmon resonance (SPR), Single Cycle Kinetics. The conditions noted are these: SPR, GDP-bound HRAS wild-type vs GDP-bound KRAS wild-type. (In general: Surface plasmon resonance follows binding to a sensor surface in real time, without labels.)
Sequence of GDP-bound HRAS wild-type protein (P01112 whole entry): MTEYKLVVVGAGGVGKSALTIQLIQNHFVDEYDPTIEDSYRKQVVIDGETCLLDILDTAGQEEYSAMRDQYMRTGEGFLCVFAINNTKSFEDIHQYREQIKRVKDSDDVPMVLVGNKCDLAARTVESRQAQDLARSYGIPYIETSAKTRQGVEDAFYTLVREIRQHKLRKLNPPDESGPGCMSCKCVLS

Sequence of GDP-bound NRAS wild-type protein (P01111 whole entry): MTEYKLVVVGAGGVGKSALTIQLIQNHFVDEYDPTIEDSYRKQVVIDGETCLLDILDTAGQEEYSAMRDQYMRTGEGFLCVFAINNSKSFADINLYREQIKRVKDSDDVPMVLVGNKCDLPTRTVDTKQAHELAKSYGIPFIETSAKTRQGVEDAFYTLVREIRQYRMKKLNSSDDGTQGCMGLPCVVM

Regarding `CCC[C@H]1C(=O)N[C@@H]([C@@H](C)CC)C(=O)N(C2CC2)CC(=O)N(C)[C@H]2C/C=C\CCN(C2=O)[C@@H](Cc2ccc(C(F)(F)F)cc2)C(=O)N(C)CC(=O)N[C@@H](CCc2ccc(C(F)(F)F)c(OC)c2)C(=O)N2C[C@H](OCC)C[C@H]2C(=O)N(C)C2(CCC2)C(=O)N(C)[C@@H](C2CCCC2)C(=O)N(C)[C@H](C(=O)N(C)C)CC(=O)N1C` [PP2316, (2S,8S,12R,14S,20S,23S,27S,30S,36S,38Z)-20-cyclopentyl-32-cyclopropyl-12-ethoxy-8-[2-[3-methoxy-4-(trifluoromethyl)phenyl]ethyl]-N,N,4,16,19,22,26,35-octamethyl-30-[(1S)-1-methylpropyl]-3,6,9,15,18,21,25,28,31,34,42-undecaoxo-27-propyl-2-[[4-(trifluoromethyl)phenyl]methyl]spiro[1,4,7,10,16,19,22,26,29,32,35-undecazatricyclo[34.5.1.0^10,14]dotetracont-38-ene-17,1′-cyclobutane]-23-carboxamide], the “NRAS/KRAS (ratio of KD value with respect to NRAS to KD value with respect to KRAS)” value in assay [1] is “A (a compound having 10 or more and less than 20 is denoted as A)”. In addition, in assay [2], the “HRAS/KRAS (ratio of KD value with respect to HRAS to KD value with respect to KRAS)” value was “A (a compound having 10 or more and less than 20 is denoted as A)”.

Turning to `CCC[C@H]1C(=O)N[C@@H]([C@@H](C)CC)C(=O)N2CCC[C@H]2C(=O)N(C)[C@H]2C/C=C\CCN(C2=O)[C@@H](Cc2ccc(C(F)(F)F)cc2)C(=O)N(C)CC(=O)N[C@@H](CCc2ccc(C(F)(F)F)c(OC)c2)C(=O)N2C[C@H](OCC)C[C@H]2C(=O)N(C)C2(CCC2)C(=O)N(C)[C@@H](C(CC)CC)C(=O)N(C)[C@H](C(=O)N(C)C)CC(=O)N1C` [PP2317], the “NRAS/KRAS (ratio of KD value with respect to NRAS to KD value with respect to KRAS)” value in assay [1] was “A (a compound having 10 or more and less than 20 is denoted as A)”. Moreover, the “HRAS/KRAS (ratio of KD value with respect to HRAS to KD value with respect to KRAS)” value in assay [2] was “A (a compound having 10 or more and less than 20 is denoted as A)”.

Turning to `CCCOC[C@H]1C(=O)N[C@@H]([C@@H](C)CC)C(=O)N(C2CC2)CC(=O)N(C)[C@H]2C/C=C\CCN(C2=O)[C@@H](Cc2ccc(C(F)(F)F)cc2)C(=O)N(C)CC(=O)N[C@@H](CCc2ccc(C(F)(F)F)c(OC)c2)C(=O)N2C[C@H](OCC)C[C@H]2C(=O)N(C)C2(CCC2)C(=O)N(C)[C@@H](C2CCCC2)C(=O)N(C)[C@H](C(=O)N(C)C)CC(=O)N1C` [PP2318], the “NRAS/KRAS (ratio of KD value with respect to NRAS to KD value with respect to KRAS)” value in assay [1] was “A (a compound having 10 or more and less than 20 is denoted as A)”. In addition, the “HRAS/KRAS (ratio of KD value with respect to HRAS to KD value with respect to KRAS)” value in assay [2] is “A (a compound having 10 or more and less than 20 is denoted as A)”.

Turning to `CCOC[C@H]1C(=O)N[C@@H]([C@@H](C)CC)C(=O)N2CCC[C@H]2C(=O)N(C)[C@H]2C/C=C\CCN(C2=O)[C@@H](Cc2ccc(C(F)(F)F)cc2)C(=O)N(C)CC(=O)N[C@@H](CCc2ccc(C(F)(F)F)c(OC)c2)C(=O)N2C[C@H](OCC)C[C@H]2C(=O)N(C)C2(CCC2)C(=O)N(C)[C@@H](C(CC)CC)C(=O)N(C)[C@H](C(=O)N(C)C)CC(=O)N1C` [PP2319], the “NRAS/KRAS (ratio of KD value with respect to NRAS to KD value with respect to KRAS)” value in assay [1] is “AA (a compound having 20 or more is denoted as AA)”. Moreover, the “HRAS/KRAS (ratio of KD value with respect to HRAS to KD value with respect to KRAS)” value in assay [2] is “A (a compound having 10 or more and less than 20 is denoted as A)”.

For `CCC[C@H]1C(=O)N[C@@H]([C@@H](C)CC)C(=O)N2CCC[C@H]2C(=O)N(C)[C@H]2C/C=C\CCN(C2=O)[C@@H](Cc2ccc(C(F)(F)F)cc2)C(=O)N(C)CC(=O)N[C@@H](CCc2ccc(C(F)(F)F)c(OC)c2)C(=O)N2C[C@H](OCC)C[C@H]2C(=O)N(C)C2(CCC2)C(=O)N(C)[C@@H](C2CCCC2)C(=O)N(C)[C@H](C(=O)N(C)C)CC(=O)N1C` [PP2320, (1S,4S,10S,13S,17S,20S,26S,28R,32S,38S,42Z)-20-cyclopentyl-28-ethoxy-32-[2-[3-methoxy-4-(trifluoromethyl)phenyl]ethyl]-N,N,2,14,18,21,24,36-octamethyl-10-[(1S)-1-methylpropyl]-3,9,12,15,19,22,25,31,34,37,45-undecaoxo-13-propyl-38-[[4-(trifluoromethyl)phenyl]methyl]spiro[2,8,11,14,18,21,24,30,33,36,39-undecazatetracyclo[37.5.1.0^4,8.0^26,30]pentatetracont-42-ene-23,1′-cyclobutane]-17-carboxamide], in assay [1], the “NRAS/KRAS (ratio of KD value with respect to NRAS to KD value with respect to KRAS)” value is “A (a compound having 10 or more and less than 20 is denoted as A)”. Moreover, the “HRAS/KRAS (ratio of KD value with respect to HRAS to KD value with respect to KRAS)” value in assay [2] was “A (a compound having 10 or more and less than 20 is denoted as A)”.

With `CCCOC[C@H]1C(=O)N[C@@H]([C@@H](C)CC)C(=O)N2CCC[C@H]2C(=O)N(C)[C@H]2C/C=C\CCN(C2=O)[C@@H](Cc2ccc(C(F)(F)F)cc2)C(=O)N(C)CC(=O)N[C@@H](CCc2ccc(C(F)(F)F)c(OC)c2)C(=O)N2C[C@H](OCC)C[C@H]2C(=O)N(C)C2(CCC2)C(=O)N(C)[C@@H](C2CCCC2)C(=O)N(C)[C@H](C(=O)N(C)C)CC(=O)N1C` [PP2322], the “NRAS/KRAS (ratio of KD value with respect to NRAS to KD value with respect to KRAS)” value in assay [1] was “A (a compound having 10 or more and less than 20 is denoted as A)”. Moreover, the “HRAS/KRAS (ratio of KD value with respect to HRAS to KD value with respect to KRAS)” value in assay [2] was “B (a compound having 3 or more and less than 10 is denoted as B)”.

As to `CCCOC[C@H]1C(=O)N[C@@H]([C@@H](C)CC)C(=O)N(C)CC(=O)N(C)[C@H]2C/C=C\CCN(C2=O)[C@@H](Cc2ccc(C)cc2)C(=O)N(C)CC(=O)N[C@@H](CCc2ccc(C(F)(F)F)c(OC)c2)C(=O)N2C[C@H](OCC)C[C@H]2C(=O)N(C)C2(CCC2)C(=O)N(C)[C@@H](C(CC)CC)C(=O)N(C)[C@H](C(=O)N(C)C)CC(=O)N1C` [PP2323], in assay [1], the “NRAS/KRAS (ratio of KD value with respect to NRAS to KD value with respect to KRAS)” value was “A (a compound having 10 or more and less than 20 is denoted as A)”. The “HRAS/KRAS (ratio of KD value with respect to HRAS to KD value with respect to KRAS)” value in assay [2] was “A (a compound having 10 or more and less than 20 is denoted as A)”.

Turning to `CCC[C@H]1C(=O)N[C@@H]([C@@H](C)CC)C(=O)N(C2CC2)CC(=O)N(C)[C@H]2C/C=C\CCN(C2=O)[C@@H](Cc2ccc(C)cc2)C(=O)N(C)CC(=O)N[C@@H](CCc2ccc(C(F)(F)F)c(OC)c2)C(=O)N2C[C@H](OCC)C[C@H]2C(=O)N(C)C2(CCC2)C(=O)N(C)[C@@H](C(CC)CC)C(=O)N(C)[C@H](C(=O)N(C)C)CC(=O)N1C` [PP2325], in assay [1], the “NRAS/KRAS (ratio of KD value with respect to NRAS to KD value with respect to KRAS)” value was “A (a compound having 10 or more and less than 20 is denoted as A)”. For the same compound, the “HRAS/KRAS (ratio of KD value with respect to HRAS to KD value with respect to KRAS)” value in assay [2] was “A (a compound having 10 or more and less than 20 is denoted as A)”.

In the case of `CCCOC[C@H]1C(=O)N[C@@H]([C@@H](C)CC)C(=O)N(C)CC(=O)N(C)[C@H]2C/C=C\CCN(C2=O)[C@@H](Cc2ccc(C)cc2)C(=O)N(C)CC(=O)N[C@@H](CCc2ccc(C(F)(F)F)c(OC)c2)C(=O)N2C[C@H](OCC)C[C@H]2C(=O)N(C)C2(CCC2)C(=O)N(C)[C@@H](C2CCCC2)C(=O)N(C)[C@H](C(=O)N(C)C)CC(=O)N1C` [PP2326], the “NRAS/KRAS (ratio of KD value with respect to NRAS to KD value with respect to KRAS)” value in assay [1] was “A (a compound having 10 or more and less than 20 is denoted as A)”. Further, the “HRAS/KRAS (ratio of KD value with respect to HRAS to KD value with respect to KRAS)” value in assay [2] was “B (a compound having 3 or more and less than 10 is denoted as B)”.

Take `CCCOC[C@H]1C(=O)N[C@@H]([C@@H](C)CC)C(=O)N(C2CC2)CC(=O)N(C)[C@H]2C/C=C\CCN(C2=O)[C@@H](Cc2ccc(C)cc2)C(=O)N(C)CC(=O)N[C@@H](CCc2ccc(C(F)(F)F)c(OC)c2)C(=O)N2C[C@H](OCC)C[C@H]2C(=O)N(C)C2(CCC2)C(=O)N(C)[C@@H](C(CC)CC)C(=O)N(C)[C@H](C(=O)N(C)C)CC(=O)N1C` [PP2327]: the “NRAS/KRAS (ratio of KD value with respect to NRAS to KD value with respect to KRAS)” value in assay [1] was “A (a compound having 10 or more and less than 20 is denoted as A)”. In addition, in assay [2], the “HRAS/KRAS (ratio of KD value with respect to HRAS to KD value with respect to KRAS)” value was “A (a compound having 10 or more and less than 20 is denoted as A)”.

Consider `CCC[C@H]1C(=O)N[C@@H]([C@@H](C)CC)C(=O)N(C2CC2)CC(=O)N(C)[C@H]2C/C=C\CCN(C2=O)[C@@H](Cc2ccc(C)cc2)C(=O)N(C)CC(=O)N[C@@H](CCc2ccc(C(F)(F)F)c(OC)c2)C(=O)N2C[C@H](OCC)C[C@H]2C(=O)N(C)C2(CCC2)C(=O)N(C)[C@@H](C2CCCC2)C(=O)N(C)[C@H](C(=O)N(C)C)CC(=O)N1C` [PP2328, (2S,8S,12R,14S,20S,23S,27S,30S,36S,38Z)-20-cyclopentyl-32-cyclopropyl-12-ethoxy-8-[2-[3-methoxy-4-(trifluoromethyl)phenyl]ethyl]-N,N,4,16,19,22,26,35-octamethyl-30-[(1S)-1-methylpropyl]-3,6,9,15,18,21,25,28,31,34,42-undecaoxo-27-propyl-2-(p-tolylmethyl)spiro[1,4,7,10,16,19,22,26,29,32,35-undecazatricyclo[34.5.1.0^10,14]dotetracont-38-ene-17,1′-cyclobutane]-23-carboxamide], for which the “NRAS/KRAS (ratio of KD value with respect to NRAS to KD value with respect to KRAS)” value in assay [1] was “A (a compound having 10 or more and less than 20 is denoted as A)”. Besides, in assay [2], the “HRAS/KRAS (ratio of KD value with respect to HRAS to KD value with respect to KRAS)” value is “A (a compound having 10 or more and less than 20 is denoted as A)”.

Turning to `CCC[C@H]1C(=O)N[C@@H]([C@@H](C)CC)C(=O)N2CCC[C@H]2C(=O)N(C)[C@H]2C/C=C\CCN(C2=O)[C@@H](Cc2ccc(C)cc2)C(=O)N(C)CC(=O)N[C@@H](CCc2ccc(C(F)(F)F)c(OC)c2)C(=O)N2C[C@H](OCC)C[C@H]2C(=O)N(C)C2(CCC2)C(=O)N(C)[C@@H](C(CC)CC)C(=O)N(C)[C@H](C(=O)N(C)C)CC(=O)N1C` [PP2329], the “NRAS/KRAS (ratio of KD value with respect to NRAS to KD value with respect to KRAS)” value in assay [1] is “A (a compound having 10 or more and less than 20 is denoted as A)”. Besides, the “HRAS/KRAS (ratio of KD value with respect to HRAS to KD value with respect to KRAS)” value in assay [2] is “A (a compound having 10 or more and less than 20 is denoted as A)”.

Regarding `CCCOC[C@H]1C(=O)N[C@@H]([C@@H](C)CC)C(=O)N(C2CC2)CC(=O)N(C)[C@H]2C/C=C\CCN(C2=O)[C@@H](Cc2ccc(C)cc2)C(=O)N(C)CC(=O)N[C@@H](CCc2ccc(C(F)(F)F)c(OC)c2)C(=O)N2C[C@H](OCC)C[C@H]2C(=O)N(C)C2(CCC2)C(=O)N(C)[C@@H](C2CCCC2)C(=O)N(C)[C@H](C(=O)N(C)C)CC(=O)N1C` [PP2330], the “NRAS/KRAS (ratio of KD value with respect to NRAS to KD value with respect to KRAS)” value in assay [1] is “A (a compound having 10 or more and less than 20 is denoted as A)”. For the same compound, the “HRAS/KRAS (ratio of KD value with respect to HRAS to KD value with respect to KRAS)” value in assay [2] is “A (a compound having 10 or more and less than 20 is denoted as A)”.

The values above are taken from patent US20250230193A1, “CYCLIC COMPOUND HAVING SELECTIVE KRAS INHIBITORY EFFECT ON HRAS AND NRAS” (CHUGAI SEIYAKU KABUSHIKI KAISHA, priority 2022, published 2025).
